Data published in PubChem BioAssay (NCI).
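The compound was tested at five concentrations on cells cultured in 96-well plates, with a 48-hour exposure period. GI50 marks 50% less growth. Definition used: TGI = concentration required for complete inhibition of growth.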

Legend:
Test in all cases: NCI tumour cell line growth inhibition, 48 h; in the data active = GI50 below about 0.43 µM; inactive = the rest
786-0 renal = test system: 786-0 renal
A498 renal = test system: A498 renal
A549 NSCLC = test system: A549 NSCLC
ACHN renal = test system: ACHN renal
BT-549 breast = test system: BT-549 breast
CAKI-1 renal = test system: CAKI-1 renal
CCRF-CEM leukemia = test system: CCRF-CEM leukemia
DU-145 prostate = test system: DU-145 prostate
EKVX NSCLC = test system: EKVX NSCLC
HCT-116 colon = test system: HCT-116 colon
HCT-15 colon = test system: HCT-15 colon
HOP-62 NSCLC = test system: HOP-62 NSCLC
HOP-92 NSCLC = test system: HOP-92 NSCLC
HS 578T breast = test system: HS 578T breast
HT29 colon = test system: HT29 colon
IGROV1 ovarian = test system: IGROV1 ovarian
K-562 leukemia = test system: K-562 leukemia
KM12 colon = test system: KM12 colon
LOX IMVI melanoma = test system: LOX IMVI melanoma
M14 melanoma = test system: M14 melanoma
MALME-3M melanoma = test system: MALME-3M melanoma
MDA-MB-231 breast = test system: MDA-MB-231 breast
MDA-MB-435 = test system: MDA-MB-435
MDA-N = test system: MDA-N
MOLT-4 leukemia = test system: MOLT-4 leukemia
NCI-H226 lung = test system: NCI-H226 lung
NCI-H23 lung = test system: NCI-H23 lung
NCI-H460 lung = test system: NCI-H460 lung
NCI-H522 lung = test system: NCI-H522 lung
NCI/ADR-RES ovarian = test system: NCI/ADR-RES ovarian
OVCAR-3 ovarian = test system: OVCAR-3 ovarian
OVCAR-4 ovarian = test system: OVCAR-4 ovarian
OVCAR-5 ovarian = test system: OVCAR-5 ovarian
OVCAR-8 ovarian = test system: OVCAR-8 ovarian
PC-3 prostate = test system: PC-3 prostate
RXF 393 renal = test system: RXF 393 renal
SF-268 CNS = test system: SF-268 CNS
SF-295 CNS = test system: SF-295 CNS
SK-MEL-2 melanoma = test system: SK-MEL-2 melanoma
SK-MEL-28 melanoma = test system: SK-MEL-28 melanoma
SK-MEL-5 melanoma = test system: SK-MEL-5 melanoma
SN12C renal = test system: SN12C renal
SNB-19 CNS = test system: SNB-19 CNS
SNB-75 CNS = test system: SNB-75 CNS
SR leukemia = test system: SR leukemia
SW-620 colon = test system: SW-620 colon
T-47D breast = test system: T-47D breast
TK-10 renal = test system: TK-10 renal
U251 CNS = test system: U251 CNS
UACC-62 melanoma = test system: UACC-62 melanoma
UO-31 renal = test system: UO-31 renal

O=C(O)C[O][Sb][O]CC(=O)O
> 100 µM: TGI (786-0 renal) | TGI (A498 renal) | TGI (A549 NSCLC) | TGI (ACHN renal) | TGI (BT-549 breast) | TGI (CAKI-1 renal) | TGI (CCRF-CEM leukemia) | TGI (DU-145 prostate) | TGI (EKVX NSCLC) | TGI (HCT-116 colon) | TGI (HCT-15 colon) | TGI (HOP-62 NSCLC) | TGI (HOP-92 NSCLC) | TGI (HS 578T breast) | TGI (HT29 colon) | TGI (IGROV1 ovarian) | TGI (K-562 leukemia) | TGI (KM12 colon) | TGI (LOX IMVI melanoma) | TGI (M14 melanoma) | TGI (MALME-3M melanoma) | TGI (MDA-MB-231 breast) | TGI (MDA-MB-435) | TGI (MDA-N) | TGI (MOLT-4 leukemia) | TGI (NCI-H226 lung) | TGI (NCI-H23 lung) | TGI (NCI-H460 lung) | TGI (NCI-H522 lung) | TGI (NCI/ADR-RES ovarian) | TGI (OVCAR-3 ovarian) | TGI (OVCAR-4 ovarian) | TGI (OVCAR-5 ovarian) | TGI (OVCAR-8 ovarian) | TGI (PC-3 prostate) | TGI (RXF 393 renal) | TGI (SF-268 CNS) | TGI (SF-295 CNS) | TGI (SK-MEL-2 melanoma) | TGI (SK-MEL-28 melanoma) | TGI (SK-MEL-5 melanoma) | TGI (SN12C renal) | TGI (SNB-19 CNS) | TGI (SNB-75 CNS) | TGI (SR leukemia) | TGI (SW-620 colon) | TGI (T-47D breast) | TGI (TK-10 renal) | TGI (U251 CNS) | TGI (UACC-62 melanoma) | TGI (UO-31 renal)
inactive: GI50 (786-0 renal) > 100 µM | GI50 (A498 renal) > 100 µM | GI50 (A549 NSCLC) > 100 µM | GI50 (ACHN renal) > 100 µM | GI50 (BT-549 breast) > 100 µM | GI50 (CAKI-1 renal) > 100 µM | GI50 (CCRF-CEM leukemia) > 100 µM | GI50 (DU-145 prostate) > 100 µM | GI50 (EKVX NSCLC) > 100 µM | GI50 (HCT-116 colon) > 100 µM | GI50 (HCT-15 colon) > 100 µM | GI50 (HOP-62 NSCLC) > 100 µM | GI50 (HOP-92 NSCLC) > 100 µM | GI50 (HS 578T breast) > 100 µM | GI50 (HT29 colon) > 100 µM | GI50 (IGROV1 ovarian) > 100 µM | GI50 (K-562 leukemia) > 100 µM | GI50 (KM12 colon) > 100 µM | GI50 (LOX IMVI melanoma) > 100 µM | GI50 (M14 melanoma) > 100 µM | GI50 (MALME-3M melanoma) > 100 µM | GI50 (MDA-MB-231 breast) > 100 µM | GI50 (MDA-MB-435) > 100 µM | GI50 (MDA-N) > 100 µM | GI50 (MOLT-4 leukemia) > 100 µM | GI50 (NCI-H226 lung) > 100 µM | GI50 (NCI-H23 lung) > 100 µM | GI50 (NCI-H460 lung) > 100 µM | GI50 (NCI-H522 lung) > 100 µM | GI50 (NCI/ADR-RES ovarian) > 100 µM | GI50 (OVCAR-3 ovarian) > 100 µM | GI50 (OVCAR-4 ovarian) > 100 µM | GI50 (OVCAR-5 ovarian) > 100 µM | GI50 (OVCAR-8 ovarian) > 100 µM | GI50 (PC-3 prostate) > 100 µM | GI50 (RXF 393 renal) > 100 µM | GI50 (SF-268 CNS) > 100 µM | GI50 (SF-295 CNS) > 100 µM | GI50 (SK-MEL-2 melanoma) > 100 µM | GI50 (SK-MEL-28 melanoma) > 100 µM | GI50 (SK-MEL-5 melanoma) > 100 µM | GI50 (SN12C renal) > 100 µM | GI50 (SNB-19 CNS) > 100 µM | GI50 (SNB-75 CNS) > 100 µM | GI50 (SR leukemia) > 100 µM | GI50 (SW-620 colon) > 100 µM | GI50 (T-47D breast) > 100 µM | GI50 (TK-10 renal) > 100 µM | GI50 (U251 CNS) > 100 µM | GI50 (UACC-62 melanoma) > 100 µM | GI50 (UO-31 renal) > 100 µM
